# Laboratory results taken from patent US6710066B2, “Photochemotherapeutic method using 5-aminolevulinic acid and other precursors of endogenous porphyrins” (priority 1989, dated 2004).
# Where two headings read alike, the source gives them in different places.
# Columns and labels:
# L. donovani = test: PpIX accumulation on exposure to exogenous ALA, Leishmania; conditions: exposed to exogenous ALA
# [1] = test system: Dermatophyte (Trichophyton Species)
# [2] = test system: endometrium and myometrium; test: Endometrial fluorescence in vivo following topical application of ALA in the non-human primate; parameters: species or system rhesus monkey; conditions: 50 mg ALA into uterine lumen, hysterectomy 3 hours later
# Method: 50 mg of ALA was injected into the uterine lumen of an adult, healthy, female rhesus monkey following exposure of the uterus at laparotomy. A hysterectomy was performed 3 hours later and cross sectional slices incorporating endometrial and myometrial tissue were taken from the uterine specimen. These slices were subjected to examination by fluorescence microscopy as in Example 2 and 3 above.
# acne lesions = test: PpIX induced fluorescence in subjects with truncal acne after topical ALA; format: in vivo, human
# Method: Evaluation of PpIX induced fluorescence in 8 subjects with mild to moderate truncal acne was performed. Bacterial infections are frequently associated with lesions of acne, e.g., P. acne. Following evaluation of baseline acne lesion fluorescence, ALA solution 10 and 20% was applied to 10 5 cm^2 sites on the chest or back of volunteers and evaluated at times 0, 3, 8 and 24 hours after ALA application. One site of each concentration was also occluded with opaque film for 3 hours and evaluated at similar time points for comparison with unoccluded sites. Fluorescence of both acneiform lesions as well as surrounding normal skin was assessed visually using a 4 point grading system (0=none, 4=extremely severe) and documented photographically.
# P. chabaudi [3] = test: In vitro photosensitization of P. chabaudi, cells of infected mice incubated with ALA; format: cell-based, mouse
# [4] = test system: Candida albicans, Candida glabrata, Cryptococcus neoformans, Penicillium species, Aspergillus niger, Aspergillus fumigatus, Alternaria species, Saccharomyces …; test: In vitro PpIX fluorescence of yeast and fungi treated with ALA; format: cell-based; conditions: ALA 1 mM to 100 mM or 20-80% solutions in water
# Method: Clinical isolates of Candida albicans, Candida glabrata, and Cryptococcus neoformans and environmental isolates of Penicillium species, Aspergillus niger, Aspergillus fumigatus, and Alternaria species and Saccharomyces cerivisiae (brewer's yeast) obtained from the clinical microbiology laboratories of Kingston General Hospital, Kingston, Ontario, Canada were used. The organisms were plated, and during rapid growth were treated with various concentrations of ALA varying from 1 mM to 100 mM by flooding or by using diffusion wells in the agar, while the isolates of Penicillium and Aspergillus were treated with 40% or 80% solutions of ALA in water and the Penicillium species, Alternaria species, Aspergillus niger and Aspergillus fumigatus were treated with 20% ALA in water via diffusion wells.
# P. chabaudi [5] = test system: P. chabaudi
# Source text: These examples involve the murine malarial parasites Plasmodium yoelii (lethal strain) and Plasmodium chabaudi (non-lethal strain) as models for human malaria.
# P. yoelii [6] = test: In vitro incubation of blood, spleen or marrow cells from P. yoelii infected mice with ALA; format: cell-based, mouse
# Method: For the in vitro studies, no ALA was given to the donor mice. Two drops of whole blood were withdrawn from the tail of each mouse and placed in a 35 mm petri dish containing 3 cc of RPMI 1640 without phenol red.
# i) a petri dish contained infected whole blood with […] ALA in RPMI.
# ii) a second petri dish contained infected whole blood plus RPMI but not ALA.
# iii) a third petri dish contained normal whole blood cells with 5 mM ALA in RPMI.
# iv) a fourth petri dish contained normal whole blood cells with RPMI but not ALA.
# All petri dishes were incubated at 37 Celsius and room air environment. Samples (0.5 cc) were taken at regular intervals from these incubated petri dishes to be analyzed in the flow cytometer to follow accumulation of PpIX.
# P. yoelii [7] = test system: P. yoelii
# Source text: (A) Infectivity Assay: Mice infected with P. yoelii were given a standard dose of ALA by intraperitoneal injection. Peripheral blood and/or spleen cells were collected after a standard interval, exposed to standard doses of photoactivating light (including a no-light control) and then injected into normal mice.
# Four hours later, its spleen cells were suspended in isotonic saline. Half of the spleen cell suspension was placed on ice and ekxposed to photoactivating light (waveband 600-700 nm, intensity […], total dose 540 J/cm^2), while the other half was kept on ice in the dark. Balb/c mice were injected intraperitoneally with either the light treated or untreated sample. Survival of the mice was followed for 90 days. FIG. 1 illustrates the duration of survival of individual mice following the injection of spleen cells infected with P. yoelii.
# [8] = test system: endometrium (uterine horns); test: Long term photodynamic endometrial ablation in rats; format: in vivo, rat
# Method: Rats were divided into 2 groups (6 and 7 rats/group) and their uterine horns were injected with 4 or 8 mg ALA. Example 1, of U.S. application Ser. No. 08/082,113, filed Jun. 21, 1993 (U.S. Pat. No. 5,422,093), was repeated with the exception that all rats were exposed to light and the time from ALA administration to breeding was extended from 10-20 days to 60-70 days. All other procedures were identical to Example 1.
# In the groups of rats (n=7) treated with 8 mg ALA 2 of 7 became pregnant in ALA treated uterine horns compared with 7 of 7 pregnancies in the saline treated horns.
# In order to show normal uterine histology of a nonpregnant uterine horn contralateral to a pregnant uterine horn one uterine horn was ligated at its distal end prior to breeding. At gestation of 10-15 days nonpregnant uterine horns were harvested and histologically processed. The uterine mucosa was lined with columnar epithelium and there was hypertrophic infolding of endometrial tissue with tortuous glands.
# [9] = test system: endometrial and myometrial samples; test: Fluorescence of endometrial and myometrial samples incubated with ALA; format: cell-based; conditions: 1 mM ALA
# Method: The procedures of Example 1 (U.S. Pat. No. 5,422,093) were repeated with 1, 2, 3, 4 and 5 hour incubation periods using a level of 1 mM of ALA.
# [10] = cited from earlier work
# [11] = test system: Lumbricus terrestris (dewworm); test: PpIX accumulation on exposure to exogenous ALA, dewworm; conditions: exposed to exogenous ALA
# [12] = ALA solution 10 and 20%, unoccluded sites
# [13] = sites occluded with opaque film for 3 hours
# [14] = ALA by intraperitoneal injection
# [15] = ALA in vivo, then photoactivating light
# [16] = exposed to exogenous ALA, Example 10 list
# [17] = cells incubated with ALA in vitro
compound,measurement,setting,value
"NCC(=O)CCC(=O)O [ALA, 5-Amino-4-oxopentanoic acid]",accumulation of fluorescing concentrations of PpIX,L. donovani,ALA-induced fluorescence
same,appearance of toe upon completion of treatment,"[1]; human, in vivo",erythematous and somewhat edematous
same,subjective response during light exposure,"[1]; human, in vivo","itching, stinging, and a sensation of mild burning"
same,clinical outcome of fungal infection,[1]; over the next few months after one treatment,all clinical evidence of the fungal infection vanished
same,fluorescence in endometrium,[2],Fluorescence was observed throughout the endometrium of all slices
same,fluorescence in myometrium,[2],No fluorescence was observed
same,PpIX fluorescence by 24 hours,acne lesions; [12],weak or no fluorescence
same,dose dependence of increase in PpIX fluorescence,acne lesions; [12],dose dependent
same,specificity of PpIX fluorescence,acne lesions; [12],specific for acne lesions and spared normal surrounding skin
same,time of maximum PpIX fluorescence,acne lesions; [12],8 h
same,PpIX fluorescence at 24 hours,acne lesions; [13],remained present at 24 hours
same,distribution of PpIX fluorescence,acne lesions; [13],developed PpIX fluorescence in both acne lesions and normal surrounding skin
same,PpIX accumulation in non-infected erythrocytes and leukocytes,P. chabaudi [3],significant concentrations of PpIX did not accumulate
same,PpIX accumulation in plasmodia within erythrocytes,P. chabaudi [3],accumulated within many of the plasmodia
same,PpIX accumulation in molds and yeasts,[4],Positive PpIX accumulation
same,PpIX accumulation in non-infected erythrocytes and leukocytes,P. chabaudi [5]; [14],significant concentrations of PpIX did not accumulate
same,PpIX accumulation in plasmodia within erythrocytes,P. chabaudi [5]; [14],accumulated in many of the plasmodia
same,ability of plasmodia to accumulate calcein from calcein-AM,P. chabaudi [5]; [15],lost their normal ability to accumulate calcein
same,ability of plasmodia to cause malaria in recipient mice,P. chabaudi [5]; [15],lost their ability to cause malaria when injected into recipient mice
same,accumulation of fluorescing concentrations of PpIX,P. chabaudi [5]; [16],ALA-induced fluorescence
same,accumulation of photosensitizing concentrations of PpIX,P. chabaudi [5]; [16],ALA-induced photosensitization
same,damage to non-infected erythrocytes and leukocytes,"P. chabaudi [5]; mouse, in vivo",showed no morphological evidence of damage
same,"PpIX fluorescence of whole blood incubated with ALA, flow cytometer","P. yoelii [6]; ALA in RPMI 1640 (5 nM infected, 5 mM normal blood as printed), 37 Celsius",Only cells from infected mice developed PpIX fluorescence when incubated with ALA
same,PpIX accumulation in non-infected erythrocytes and leukocytes,P. yoelii [6]; [17],significant concentrations of PpIX did not accumulate
same,PpIX accumulation in plasmodia within erythrocytes,P. yoelii [6]; [17],accumulated within many of the plasmodia
same,ability of plasmodia to accumulate calcein from calcein-AM,P. yoelii [7]; [15],lost their normal ability to accumulate calcein
same,ability of plasmodia to cause malaria in recipient mice,P. yoelii [7]; [15],lost their ability to cause malaria when injected into recipient mice
same,survival of recipients of infected spleen cells,"P. yoelii [7]; donor 250 mg/kg ALA, cells exposed to photoactivating light 600-700 nm, 540 J/cm^2",remained in good health for 90 days
same,average survival of recipients of infected spleen cells,"P. yoelii [7]; donor 250 mg/kg ALA, cells kept in the dark",15 days
same,accumulation of photosensitizing concentrations of PpIX,P. yoelii [7]; [16],ALA-induced photosensitization
same,implantations in uterine horns treated with ALA,"[8]; 4 mg ALA, light, breeding 60-70 days after photodynamic treatment, n=6",no implantations
same,rats pregnant in ALA treated uterine horns,"[8]; 8 mg ALA, light, breeding 60-70 days after treatment, n=7, saline horns 7 of 7",2 of 7
same,endometrial histology after photodynamic treatment,[8]; despite hormonal stimulus of contralateral pregnancy,atrophic endometrium
same,incubation time of maximum fluorescence in endometrial samples,[9],4 h
same,fluorescence in myometrial samples,[9]; 1-5 hour incubation,No significant fluorescence
same,fluorescence in endometrial samples,[9]; incubated for 2 hours,No significant fluorescence
same,solubility in water,[10],water soluble
same,accumulation of fluorescing concentrations of PpIX,[11],ALA-induced fluorescence
same,accumulation of photosensitizing concentrations of PpIX,[11],ALA-induced photosensitization
